Experimental data from patent US9700546B2, “Trivalent chromium compounds, compositions and methods of use” (INTERHEALTH NUTRACEUTICALS, INC., priority 2006, dated 2017).
“Also recorded” adds a separate entry of the source.

Columns and labels:
Obese Zucker rats [1] = assay: In vivo assessment in obese Zucker rats: body weight and food intake; settings: for Food Intake 5 wks / Food Intake 7 wks: obese Zucker rats, daily 400 μg Cr(III)/kg, mean; for Food Intake 5 wks: at 5 weeks; for Food Intake 7 wks: at 7 weeks
Obese Zucker rats [2] = assay: In vivo assessment in obese Zucker rats: other vascular inflammation markers (cAMP, TNFα, IL-6, OxyDNA); settings: for IL-6 / cAMP / OxyDNA / TNFα: obese Zucker rats, daily 400 μg Cr(III)/kg, 8 weeks, mean ± SE; for OxyDNA: oxidative DNA damage
Obese Zucker rats [3] = assay: In vivo assessment in obese Zucker rats: blood lipid profile (total cholesterol, triglycerides, HDL); settings: daily 400 μg Cr(III)/kg, 8 weeks, mean
Obese Zucker rats [4] = assay: In vivo assessment in obese Zucker rats: vascular inflammation markers (MCP-1, CRP, RBP-4, leptin, ICAM, adiponectin); settings: for Leptin / RBP-4 / Adiponectin / CRP / ICAM / MCP-1 / C-reactive protein, effect in words / adiponectin levels, effect in words / intracellular adhesion molecule, effect in words / monocyte chemotactic protein-1, effect in words: obese Zucker rats, 8 weeks; for Leptin / RBP-4 / Adiponectin / CRP / ICAM / MCP-1: daily 400 μg Cr(III)/kg, mean; for Adiponectin / CRP / ICAM / MCP-1: plasma, ELISA; for C-reactive protein, effect in words / adiponectin levels, effect in words / intracellular adhesion molecule, effect in words / monocyte chemotactic protein-1, effect in words: effect of administration
Obese Zucker rats [5] = assay: In vivo assessment in obese Zucker rats: key biological parameters (fasting glucose, HbA1c, vitamin C, GSH, RBC lipid peroxidation); settings: for RBC Lipid Peroxidase: malondialdehyde by thiobarbituric acid; for RBC Lipid Peroxidase / Fasting Glucose / GSH / HbA1c / Vitamin C / blood vitamin C levels, effect in words / fasting glucose, effect in words / glycosylated hemoglobin, effect in words / red blood cell lipid peroxidation, effect in words: obese Zucker rats, 8 weeks; for RBC Lipid Peroxidase / Fasting Glucose / GSH / HbA1c / Vitamin C: daily 400 μg Cr(III)/kg, mean; for Fasting Glucose: fasted overnight; for Vitamin C: plasma; for blood vitamin C levels, effect in words / fasting glucose, effect in words / glycosylated hemoglobin, effect in words / red blood cell lipid peroxidation, effect in words: effect of administration
Obese Zucker rats [6] = assay: In vivo assessment in obese Zucker rats: clinical chemistry (AP, BUN, CRT, AST, ALT)
[7] = compared to chromium nicotinate-glycine-cysteine-glutamic acid GTF complex of Toepfer et al.
[8] = listed as Chromium dinicocysteinate
[9] = listed as chromium dinicocysteinate
[10] = over chromium nicotinate, chromium picolinate and chromium histidinate

## Chromium Dinicotinate Glycinate [Cr(nic)2Gly, reference compound]
Obese Zucker rats [1]
  Food Intake 5 wks: 34.29 g/day
  Food Intake 7 wks: 37.14 g/day
Obese Zucker rats [2]
  IL-6: 91.96 ± 3.83 pg/mL
  cAMP: 31.40 ± 1.57 pmol/mL
  OxyDNA: 45.62 ± 1.86 ng/mL
Obese Zucker rats [3]
  HDL: 64.57 mg/dL
  Total Chol/HDL: 3.00 ratio
  Total Cholesterol: 193.14 mg/dL
  Triglyceride: 610.33 mg/dL
Obese Zucker rats [4]
  Leptin: 461.16 pg/mL
  RBP-4: 54900.00 ng/mL
  Adiponectin: 12552.86 ng/mL
  CRP: 535.98 ng/mL
  ICAM: 16691.40 pg/mL
  MCP-1: 2897.61 pg/mL
Obese Zucker rats [5]
  RBC Lipid Peroxidase: 2.11 nmol/mL
  Fasting Glucose: 448.29 mg/dL
  GSH: 4.86 µmol/g
  HbA1c: 14.45%
  Vitamin C: 0.15 mg %

## Chromium Dinicotinate Phenylalanine [Cr(nic)2Phe]
Obese Zucker rats [1]
  Food Intake 5 wks: 38.16 g/day
  Food Intake 7 wks: 39.22 g/day
Obese Zucker rats [2]
  IL-6: 84.82 ± 1.60 pg/mL
  cAMP: 31.60 ± 1.22 pmol/mL
  OxyDNA: 40.63 ± 3.74 ng/mL
Obese Zucker rats [3]
  HDL: 70.43 mg/dL
  Total Chol/HDL: 2.87 ratio
  Total Cholesterol: 201.71 mg/dL
  Triglyceride: 583.00 mg/dL
Obese Zucker rats [4]
  Leptin: 351.16 pg/mL
  RBP-4: 53891.43 ng/mL
  Adiponectin: 12712.86 ng/mL
  CRP: 633.55 ng/mL
  ICAM: 17480.50 pg/mL
  MCP-1: 1755.25 pg/mL
Obese Zucker rats [5]
  RBC Lipid Peroxidase: 1.97 nmol/mL
  Fasting Glucose: 510.43 mg/dL
  GSH: 5.05 µmol/g
  HbA1c: 15.95%
  Vitamin C: 0.15 mg %

## Chromium Dinicotiante Glutamate [Cr(nic)2Glu]
Obese Zucker rats [1]
  Food Intake 5 wks: 37.51 g/day
  Food Intake 7 wks: 39.92 g/day
Obese Zucker rats [2]
  IL-6: 89.50 ± 3.22 pg/mL
  cAMP: 29.97 ± 1.43 pmol/mL
  OxyDNA: 43.62 ± 2.69 ng/mL
Obese Zucker rats [3]
  HDL: 65.57 mg/dL
  Total Chol/HDL: 2.94 ratio
  Total Cholesterol: 192.14 mg/dL
  Triglyceride: 666.50 mg/dL
Obese Zucker rats [4]
  Leptin: 378.02 pg/mL
  RBP-4: 46720.00 ng/mL
  Adiponectin: 12446.67 ng/mL
  CRP: 519.94 ng/mL
  ICAM: 16980.59 pg/mL
  MCP-1: 3197.58 pg/mL
Obese Zucker rats [5]
  RBC Lipid Peroxidase: 2.30 nmol/mL
  Fasting Glucose: 490.43 mg/dL
  GSH: 5.05 µmol/g
  HbA1c: 14.69%
  Vitamin C: 0.14 mg %
Obese Zucker rats [6]; obese Zucker rats, mean ± SE
  BUN/CRT Ratio: 44.71

## Chromium Dinicotinate Tryptophanate [Cr(nic)2Trp]
Obese Zucker rats [1]
  Food Intake 5 wks: 40.49 g/day
  Food Intake 7 wks: 40.78 g/day
Obese Zucker rats [2]
  IL-6: 92.09 ± 1.89 pg/mL
  cAMP: 30.36 ± 1.48 pmol/mL
  OxyDNA: 39.35 ± 3.48 ng/mL
Obese Zucker rats [3]
  HDL: 69.43 mg/dL
  Total Chol/HDL: 2.86 ratio
  Total Cholesterol: 183.17 mg/dL
  Triglyceride: 470.67 mg/dL
Obese Zucker rats [4]
  Leptin: 363.21 pg/mL
  RBP-4: 60017.14 ng/mL
  Adiponectin: 11752.86 ng/mL
  CRP: 617.66 ng/mL
  ICAM: 17950.97 pg/mL
  MCP-1: 2607.07 pg/mL
Obese Zucker rats [5]
  RBC Lipid Peroxidase: 1.96 nmol/mL
  Fasting Glucose: 513.43 mg/dL
  GSH: 5.35 µmol/g
  HbA1c: 15.55%
  Vitamin C: 0.13 mg %

## Chromium Dinicotinate Aspartate [Cr(nic)2Asp]
Obese Zucker rats [1]
  Food Intake 5 wks: 38.90 g/day
  Food Intake 7 wks: 40.00 g/day
Obese Zucker rats [2]
  IL-6: 88.91 ± 2.25 pg/mL
  cAMP: 27.95 ± 1.22 pmol/mL
  OxyDNA: 41.92 ± 1.46 ng/mL
Obese Zucker rats [3]
  HDL: 70.17 mg/dL
  Total Chol/HDL: 2.88 ratio
  Total Cholesterol: 202.17 mg/dL
  Triglyceride: 699.67 mg/dL
Obese Zucker rats [4]
  Leptin: 406.15 pg/mL
  RBP-4: 57870.00 ng/mL
  Adiponectin: 12078.33 ng/mL
  CRP: 602.51 ng/mL
  ICAM: 17985.91 pg/mL
  MCP-1: 1431.68 pg/mL
Obese Zucker rats [5]
  RBC Lipid Peroxidase: 2.02 nmol/mL
  Fasting Glucose: 496.33 mg/dL
  GSH: 5.15 µmol/g
  HbA1c: 15.62%
  Vitamin C: 0.12 mg %

## Chromium Dinicotinate Argininate [Cr(nic)2Arg]
Obese Zucker rats [1]
  Food Intake 5 wks: 40.22 g/day
  Food Intake 7 wks: 45.28 g/day
Obese Zucker rats [2]
  IL-6: 92.35 ± 2.79 pg/mL
  TNFα: 17.84 ± 1.26 pg/mL
  cAMP: 38.96 ± 3.88 pmol/mL
  OxyDNA: 58.26 ± 2.57 ng/mL
Obese Zucker rats [3]
  HDL: 69.78 mg/dL
  Total Chol/HDL: 3.00 ratio
  Total Cholesterol: 186.16 mg/dL
  Triglyceride: 554.65 mg/dL
Obese Zucker rats [4]
  Leptin: 335.80 pg/mL
  RBP-4: 52537.50 ng/mL
  Adiponectin: 9279.38 ng/mL
  CRP: 628.49 ng/mL
  ICAM: 18591.76 pg/mL
  MCP-1: 3235.62 pg/mL
Obese Zucker rats [5]
  RBC Lipid Peroxidase: 2.47 nmol/mL
  Fasting Glucose: 628.87 mg/dL
  GSH: 4.89 µmol/g
  HbA1c: 16.56%
  Vitamin C: 0.14 mg %

## Chromium Dinicocysteinate [Cr(nic)2Cys]
Obese Zucker rats [1]; [7]
  food intake vs GTF complex, in words: reduced
Obese Zucker rats [1]; effect of administration
  food intake, effect in words: reduction
Obese Zucker rats [1]
  Food Intake 5 wks: 34.43 g/day
  Food Intake 7 wks: 38.62 g/day
Obese Zucker rats [2]; [7]
  OxyDNA vs GTF complex, in words: decreased levels
  TNFα vs GTF complex, in words: decreased levels
Obese Zucker rats [2]
  IL-6: 95.02 ± 1.99 pg/mL
  TNFα: 17.72 ± 3.35 pg/mL
  cAMP: 33.26 ± 2.61 pmol/mL
  OxyDNA: 46.92 ± 2.24 ng/mL
Obese Zucker rats [2]; over chromium picolinate and chromium histidinate
  TNFα vs comparators, in words: lowered levels
Obese Zucker rats [3]
  HDL: 66.46 mg/dL
  Total Cholesterol: 188.46 mg/dL
  Triglyceride: 550.89 mg/dL
Obese Zucker rats [4]; [7]
  adiponectin vs GTF complex, in words: increased levels
Obese Zucker rats [4]; [8]
  C-reactive protein, effect in words: reductions
  adiponectin levels, effect in words: elevation
  intracellular adhesion molecule, effect in words: reductions
  monocyte chemotactic protein-1, effect in words: reductions
Obese Zucker rats [4]; [9]
  C-reactive protein, effect in words: reducing; also recorded: reductions
  adiponectin levels, effect in words: increases
  intracellular adhesion molecule, effect in words: reducing
  monocyte chemotactic protein-1, effect in words: reducing; also recorded: reductions
Obese Zucker rats [4]
  Leptin: 407.32 pg/mL
  RBP-4: 49670.13 ng/mL
  Adiponectin: 12732.11 ng/mL
  CRP: 569.96 ng/mL
  ICAM: 17057.51 pg/mL
  MCP-1: 2829.17 pg/mL
Obese Zucker rats [4]; [10]
  C-reactive protein vs comparators, in words: decreased levels
  ICAM vs comparators, in words: decreased levels
  adiponectin vs comparators, in words: increased levels
Obese Zucker rats [4]; over chromium picolinate
  MCP-1 vs comparator, in words: lower levels
Obese Zucker rats [5]; [7]
  fasting glucose vs GTF complex, in words: decreased levels
  glycosylated hemoglobin vs GTF complex, in words: decreased levels
  red blood cell lipid peroxidation vs GTF complex, in words: decreased levels
  vitamin C vs GTF complex, in words: increased levels
Obese Zucker rats [5]
  RBC Lipid Peroxidase: 1.81 nmol/mL
  Fasting Glucose: 446.24 mg/dL
  GSH: 4.74 µmol/g
  HbA1c: 14.76%
  Vitamin C: 0.18 mg %
Obese Zucker rats [5]; [8]
  blood vitamin C levels, effect in words: elevation
  fasting glucose, effect in words: reductions
  glycosylated hemoglobin, effect in words: reductions
  red blood cell lipid peroxidation, effect in words: reductions
Obese Zucker rats [5]; [9]
  blood vitamin C levels, effect in words: increased
  fasting glucose, effect in words: reducing
  glycosylated hemoglobin, effect in words: reducing
  red blood cell lipid peroxidation, effect in words: reducing; also recorded: reduced
Obese Zucker rats [5]; [10]
  fasting glucose vs comparators, in words: decreased levels
  glycosylated hemoglobin vs comparators, in words: decreased levels
  vitamin C vs comparators, in words: increased levels
Obese Zucker rats [5]; over chromium picolinate
  red blood cell lipid peroxidase vs comparator, in words: lower levels
Obese Zucker rats [6]; Zucker diabetic fatty rats, supplemented group
  alkaline phosphatase activities, effect in words: reduces
Obese Zucker rats [6]; [7]
  ALT vs GTF complex, in words: decreased levels
  AST vs GTF complex, in words: decreased levels
Obese Zucker rats [6]; effect of administration
  blood creatinine, effect in words: reducing
Obese Zucker rats [6]; obese Zucker rats, mean ± SE
  ALT (Alanine Aminotransferease): 99.00 u/L
  AP (Alkaline phosphatase): 35.15 u/L
  Anion Gap: 29.62
  BUN (Blood Urea Nitrogen): 18.23 mg/dL
  CRT (Creatinine): 0.41 mg/dL
  Total Bilirubin: 0.05 mg/dL
